Experimental data published in patent US12441733B2, “Substituted 2,4-dioxotetrahydropyrimidines as intermediates in the synthesis of bruton's tyrosine kinase inhibitors” (Novartis AG, priority 2018, dated 2025).

Target: T1, BTK(C481S)-GFP (Homo sapiens, UniProt Q06187+Q96SW2, C481S)
T1 construct: CHYSEL (cis-acting hydrolase element, 2A) remnant after GFP; mCherry is split off as a separate protein (C); expressed in transfected cells; host or cells: TMD8 cells, lentiviral transduction with pLenti6-BTK(C481S)-GFP-CHYSEL-mCherry
Assay: BTK(C481S)-GFP protein abundance flow cytometry assay in TMD8 cells
Format: cell-based
Details: TMD8 cells expressing BTK(C481S)-GFP; for DC50: GFP signal by flow cytometry; for BTK (C481S) Amax: % protein remaining at maximum degradation
Experimental: Compounds of the invention were tested in the following cellular assays. The terms in Table 2 are defined as follows: DC50 refers to the concentration at which 50% maximal degradation was observed; deg Amax is the extent of degradation and the value refers to the % protein remaining at the concentration at which maximum degradation is seen; ProI GI50 refers to the proliferation data and defines the concentration at which 50% growth inhibition was observed compared to the vehicle treated control at the end of the incubation time. TMD8 cells are BTK dependent and OCI-LY3 cells are BTK independent.
Btk(C481S)-GFP Protein Abundance Flow Cytometry Assay in TMD8 Cells:
Degradation of BTK(C481S) was measured in TMD8 cells expressing BTK(C481S)-GFP and mCherry from a stably integrated second generation bicistronic BTK(C481S)-GFP-CHYSEL-mCherry construct. Reduction of the […] measured by flow cytometry served as readout for BTK(C481S) degradation after degrader treatment.
Cloning of the pLenti6-BTK(C481)-GFP-CHYSEL-mCherry Sensor Vectors
The BTK(C481 S) protein abundance sensor is based on a second generation bicistronic construct, where the 2 reading frames BTK(C481S) and mCherry control are separated by a cis-acting hydrolase element (see: Lo et al., 2015 Cell Reports 13, 2634), replacing the Ires from the first generation vector described before.
The bicistronic BTK(C481S)-GFP-CHYSEL-mCherry construct is based on a pLenti6-DEST vector backbone where a GFP-CHYSEL-mCherry cassette was synthesized and inserted downstream of the DEST cassette by Gibson assembly resulting in the new gateway compatible vector pLenti6-DEST-GFP-CHYSEL-mCherry to allow Gateway cloning with pENTR221-BTK(C48S)(STOP-Leu) to obtain the final sensor construct pLenti6-BTK(C481S)-GFP-CHYSEL-mCherry. The pENTR221-BTK(C481S)(STOP-Leu) was generated by mutating wild-type BTK to BTK(C481S) with a mutagenesis reaction on pENTR221-BTK (STOP-Leu) with the following primers (BTK C481S Quikchange fw, gagtacatggccaatggctCcctcctgaactacctgagg (SEQ ID NO: 7); BTK C481S Quikchange REVC, cctcaggtagttcaggaggGagccattggccatgtactc (SEQ ID NO: 8)) using the QuikChange Lightning mutagenesis kit (Agilent Technologies #210518) performed according to the manufacturer's manual, resulting in pENTR221-BTK(C481S)(STOP-Leu).
Sequence of the synthesized construct (Xho1 sites are shown in bold, mCherry-ORF is shown in small letters):
Engineering of Stably Expressing TMD8 BTK(C481 S-GFP-CHYSEL-mCherry Sensor Cells
TMD8 BTK(C481S)-GFP-CHYSEL-mCherry sensor cells were generated by lentiviral vector transduction using the pLenti6-BTK(C4818)-GFP-CHYSEL-mCherry sensor construct described before. Lentiviral particles were produced in HEK293FT cells (Invitrogen R70007) by co-transfection of 500 ng pLenti6-BTK-GFP-Ires-RFP or pLenti6-IKZF3-GFP-Ires-RFP, 500 ng delta8.71 and 200 ng pVSVG diluted in 100 μl OptiMEM serum free medium (Invitrogen #11058-021) that was mixed after 5 min preincubation with 3 μl of Lipofectamine2000 (Invitrogen #11668-019) in 97 μl OptiMEM serum free medium. The mix was incubated for another 20 min at RT and then added to 1 ml of a freshly prepared suspension of HEK293FT cells in a well of a 6-well plate (concentration 1.2×10^6 cells/ml). 1 day after transfection, the medium was replaced with 1.5 ml of complete growth medium (DMEM high Glucose+10% FCS+1% L-Glutamine+1% NEAA+1% NaPyr.). 48 h post transfection supernatant containing viral transducing particles was collected and frozen at −80° C.
Two days before transduction with viral particles 1×10^5 HEK293A cells (Invitrogen R7057) were seeded in 2 ml growth medium in a well of a 6-well plate. Infection was performed with 90 μl of collected supernatant containing viral transducing particles in 1 ml medium including 8 μg/ml polybrene. 24 h post infection, stably transfected cells were selected with blasticidin at a concentration of 8 μg/ml.

T1 sequence (Q06187 whole entry C481S): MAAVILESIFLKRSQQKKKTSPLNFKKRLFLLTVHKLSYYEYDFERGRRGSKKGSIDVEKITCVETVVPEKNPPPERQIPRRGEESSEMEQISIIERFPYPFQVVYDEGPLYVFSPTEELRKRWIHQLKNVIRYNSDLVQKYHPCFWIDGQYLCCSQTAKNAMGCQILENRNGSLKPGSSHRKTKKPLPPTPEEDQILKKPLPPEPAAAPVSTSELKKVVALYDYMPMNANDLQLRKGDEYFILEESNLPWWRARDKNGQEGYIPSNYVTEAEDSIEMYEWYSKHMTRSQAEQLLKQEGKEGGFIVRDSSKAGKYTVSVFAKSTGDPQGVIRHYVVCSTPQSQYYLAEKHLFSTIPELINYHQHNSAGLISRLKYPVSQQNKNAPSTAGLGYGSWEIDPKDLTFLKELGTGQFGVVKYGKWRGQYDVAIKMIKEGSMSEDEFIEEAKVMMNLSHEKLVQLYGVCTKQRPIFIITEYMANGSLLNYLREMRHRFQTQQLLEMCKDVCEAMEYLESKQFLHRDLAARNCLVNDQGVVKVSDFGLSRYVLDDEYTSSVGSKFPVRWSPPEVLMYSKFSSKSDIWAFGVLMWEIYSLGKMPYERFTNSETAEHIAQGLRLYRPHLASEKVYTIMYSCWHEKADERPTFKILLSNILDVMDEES
T1 sequence (Q96SW2 whole entry): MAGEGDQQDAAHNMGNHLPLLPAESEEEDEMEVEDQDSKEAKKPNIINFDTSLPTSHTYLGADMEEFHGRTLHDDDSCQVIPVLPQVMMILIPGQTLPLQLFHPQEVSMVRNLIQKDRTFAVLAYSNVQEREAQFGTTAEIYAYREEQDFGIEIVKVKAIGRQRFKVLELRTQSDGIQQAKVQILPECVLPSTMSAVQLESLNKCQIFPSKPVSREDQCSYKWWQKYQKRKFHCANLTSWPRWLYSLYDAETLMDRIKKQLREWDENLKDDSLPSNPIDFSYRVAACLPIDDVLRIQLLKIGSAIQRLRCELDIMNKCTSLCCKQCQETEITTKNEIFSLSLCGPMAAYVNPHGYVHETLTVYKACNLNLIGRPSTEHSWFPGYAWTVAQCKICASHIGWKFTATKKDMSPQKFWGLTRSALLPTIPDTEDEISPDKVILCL
T1 sequence (Q16531 whole entry partner): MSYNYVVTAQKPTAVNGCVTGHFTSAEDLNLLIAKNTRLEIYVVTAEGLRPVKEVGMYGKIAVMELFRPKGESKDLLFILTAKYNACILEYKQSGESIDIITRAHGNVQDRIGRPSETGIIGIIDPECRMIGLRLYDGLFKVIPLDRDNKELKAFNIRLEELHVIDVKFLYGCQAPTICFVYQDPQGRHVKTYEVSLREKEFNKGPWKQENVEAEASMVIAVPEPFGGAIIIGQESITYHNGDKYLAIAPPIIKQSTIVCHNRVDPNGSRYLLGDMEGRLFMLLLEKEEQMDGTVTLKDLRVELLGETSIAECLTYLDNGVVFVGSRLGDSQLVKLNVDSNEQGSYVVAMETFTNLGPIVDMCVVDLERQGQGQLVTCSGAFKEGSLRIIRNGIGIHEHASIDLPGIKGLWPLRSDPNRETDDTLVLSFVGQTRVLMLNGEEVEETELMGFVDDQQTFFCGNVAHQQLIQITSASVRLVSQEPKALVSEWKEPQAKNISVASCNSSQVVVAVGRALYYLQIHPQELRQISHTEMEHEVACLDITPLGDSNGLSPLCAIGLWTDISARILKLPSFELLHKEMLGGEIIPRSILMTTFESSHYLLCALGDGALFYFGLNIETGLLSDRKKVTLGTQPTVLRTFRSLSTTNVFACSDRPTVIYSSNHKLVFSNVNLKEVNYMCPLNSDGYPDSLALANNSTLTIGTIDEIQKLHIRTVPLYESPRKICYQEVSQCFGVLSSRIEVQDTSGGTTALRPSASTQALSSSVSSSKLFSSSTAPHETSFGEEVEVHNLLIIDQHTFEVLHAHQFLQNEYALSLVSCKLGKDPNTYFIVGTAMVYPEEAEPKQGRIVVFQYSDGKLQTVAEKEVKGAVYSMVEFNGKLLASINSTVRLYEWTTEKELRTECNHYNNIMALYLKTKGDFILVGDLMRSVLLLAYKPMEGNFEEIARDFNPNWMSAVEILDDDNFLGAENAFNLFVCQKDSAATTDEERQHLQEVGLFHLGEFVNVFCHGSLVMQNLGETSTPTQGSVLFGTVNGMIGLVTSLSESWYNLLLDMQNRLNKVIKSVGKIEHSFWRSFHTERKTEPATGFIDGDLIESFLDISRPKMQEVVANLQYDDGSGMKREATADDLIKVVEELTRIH

Structure (SMILES)	DC50	BTK (C481S) Amax
COc1ccc(C(=O)N2CCN(CCCCNCc3ccc(-c4cc5c(-c6cc(F)cc(NC(=O)c7ccc(C(C)(C)O)cc7F)c6C)ncnc5[nH]4)cc3)CC2)cc1N1CCC(=O)NC1=O [Compound 40, N-(3-(6-(4-(((4-(4-(3-(2,4-dioxotetrahydropyrimidin-1(2H)-yl)-4-methoxybenzoyl)piperazin-1-yl)butyl)amino)methyl)phenyl)-7H-pyrrolo[2,3-d]pyrimidin-4-yl)-5-fluoro-2-methylphenyl)-2-fluoro-4-(2-hydroxypropan-2-yl)benzamide]	3.03 nM	2.9%
Cc1ccc(C(=O)N(C)CCCCCNCc2ccc(-c3cc4c(-c5cc(F)cc(NC(=O)c6ccc(C(C)(C)O)cc6F)c5C)ncnc4[nH]3)cc2)cc1N1CCC(=O)NC1=O [Compound 30, 3-(2,4-Dioxotetrahydropyrimidin-1(2H)-yl)-N-(5-((4-(4-(5-fluoro-3-(2-fluoro-4-(2-hydroxypropan-2-yl)benzamido)-2-methylphenyl)-7H-pyrrolo[2,3-d]pyrimidin-6-yl)benzyl)amino)pentyl)-N,4-dimethylbenzamide]	8.18 nM	3.1%
COc1ccc(C(=O)N2CCC(OC3CCN(Cc4ccc(-c5cc6c(-c7cc(F)cc(NC(=O)c8ccc(C(C)(C)O)cc8F)c7C)ncnc6[nH]5)cc4)CC3)CC2)cc1N1CCC(=O)NC1=O [Compound 8, N-(3-(6-(4-((4-((1-(3-(2,4-dioxotetrahydropyrimidin-1(2H)-yl)-4-methoxybenzoyl)piperidin-4-yl)oxyl)piperidin-1-yl)methyl)phenyl)-7H-pyrrolo[2,3-d]pyrimidin-4-yl)-5-fluoro-2-methylphenyl)-2-fluoro-4-(2-hydroxypropan-2-yl)benzamide]	2.08 nM	2.7%

Stronger by DC50, values ahead:

DC50	BTK (C481S) Amax	Structure (SMILES)
0.72 nM	2.4%	Cc1c(NC(=O)c2ccc(C(C)(C)O)cc2F)cc(F)cc1-c1ncnc2[nH]c(-c3ccc(CCN4CCC5(CC4)CCN(C(=O)c4ccc(F)c(N6CCC(=O)NC6=O)c4)CC5)cc3)cc12 [Compound 47, N-(3-(6-(4-(2-(9-(3-(2,4-dioxotetrahydropyrimidin-1(2H)-yl)-4-fluorobenzoyl)-3,9-diazaspiro[5.5]undecan-3-yl)ethyl)phenyl)-7H-pyrrolo[2,3-d]pyrimidin-4-yl)-5-fluoro-2-methylphenyl)-2-fluoro-4-(2-hydroxypropan-2-yl)benzamide]
0.62 nM	2.7%	COc1ccc(C(=O)N2CCC(CN3CCC(Oc4ccc(-c5cc6c(-c7cc(F)cc(NC(=O)c8ccc(C(C)(C)O)cc8F)c7C)ncnc6[nH]5)cc4)CC3)CC2)cc1N1CCC(=O)NC1=O [Compound 19, N-(3-(6-(4-((1-((1-(3-(2,4-Dioxotetrahydropyrimidin-1(2H)-yl)-4-methoxybenzoyl)piperidin-4-yl)methyl)piperidin-4-yl)oxyl)phenyl)-7H-pyrrolo[2,3-d]pyrimidin-4-yl)-5-fluoro-2-methylphenyl)-2-fluoro-4-(2-hydroxypropan-2-yl)benzamide]
0.57 nM	2.5%	Cc1ccc(C(=O)N2CCC3(CCN(CCc4ccc(-c5cc6c(-c7cc(F)cc(NC(=O)c8ccc(C(C)(C)O)cc8F)c7C)ncnc6[nH]5)cc4)CC3)CC2)cc1N1CCC(=O)NC1=O [Compound 5, N-(3-(6-(4-(2-(9-(3-(2,4-Dioxotetrahydropyrimidin-1(2H)-yl)-4-methylbenzoyl)-3,9-diazaspiro[5.5]undecan-3-yl)ethyl)phenyl)-7H-pyrrolo[2,3-d]pyrimidin-4-yl)-5-fluoro-2-methylphenyl)-2-fluoro-4-(2-hydroxypropan-2-yl)benzamide]
